From ChEMBL document CHEMBL2150859, “Design, synthesis, and evaluation of 3,5-disubstituted 7-azaindoles as Trk inhibitors with anticancer and antiangiogenic activities” (J Med Chem, 2012)
pIC50: −log10 of the molar value. Active and inactive are the calls of the source. No cut-off for these calls is given here.

Tests used:
[1] = system: MCF7; assay: Induction of apoptosis in human MCF7 cells assessed as nuclear fragmentation at 10 uM after 24 hrs by DAPI staining; format: functional, cell-based
[2] = target: cAMP-dependent protein kinase catalytic subunit alpha (Homo sapiens) (UniProt P17612); assay: Binding affinity to PKACalpha at 1 uM by high throughput binding assay relative to control
[3] = target: Serine/threonine-protein kinase PLK1 (Homo sapiens) (UniProt P53350); assay: Binding affinity to PLK1 at 1 uM by high throughput binding assay relative to control
[4] = target: Tyrosine-protein kinase ABL1 (Homo sapiens) (UniProt P00519); assay: Binding affinity to ABL1 at 1 uM by high throughput binding assay relative to control
[5] = system: MCF7; assay: Induction of apoptosis in human MCF7 cells assessed as nuclear condensation at 10 uM after 24 hrs by DAPI staining; format: functional, cell-based
[6] = target: T1, High affinity nerve growth factor receptor (Homo sapiens, UniProt P04629); conditions: MCF7, 0.1 to 10 uM
Target sequence in this assay (P04629 33-796 limits assumed): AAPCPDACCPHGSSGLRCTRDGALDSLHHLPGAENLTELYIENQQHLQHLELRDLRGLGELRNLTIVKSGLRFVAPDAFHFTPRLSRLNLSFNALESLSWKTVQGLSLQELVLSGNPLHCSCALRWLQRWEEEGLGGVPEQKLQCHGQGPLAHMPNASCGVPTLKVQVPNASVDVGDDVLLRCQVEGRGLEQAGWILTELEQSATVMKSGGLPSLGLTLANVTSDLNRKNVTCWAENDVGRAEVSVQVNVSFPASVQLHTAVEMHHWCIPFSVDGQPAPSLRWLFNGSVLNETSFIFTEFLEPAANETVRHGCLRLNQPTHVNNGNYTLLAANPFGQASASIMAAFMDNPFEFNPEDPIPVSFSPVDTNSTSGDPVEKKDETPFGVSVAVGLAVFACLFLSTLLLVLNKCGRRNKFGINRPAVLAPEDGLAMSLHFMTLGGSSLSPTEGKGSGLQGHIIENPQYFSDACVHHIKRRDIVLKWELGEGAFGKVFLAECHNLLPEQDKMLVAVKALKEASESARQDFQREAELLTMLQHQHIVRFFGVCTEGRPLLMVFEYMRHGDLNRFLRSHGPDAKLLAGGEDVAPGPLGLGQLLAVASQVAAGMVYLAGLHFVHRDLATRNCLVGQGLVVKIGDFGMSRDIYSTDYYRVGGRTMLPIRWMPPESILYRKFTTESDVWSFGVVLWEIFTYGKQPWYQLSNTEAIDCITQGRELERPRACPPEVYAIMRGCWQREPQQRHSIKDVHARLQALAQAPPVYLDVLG
Description: Inhibition of TRKA phosphorylation in human MCF7 cells at 0.1 to 10 uM by Western blot analysis

[7] = system: MCF7; assay: Induction of apoptosis in human MCF7 cells assessed as decrease in Bcl-2 expression at 10 uM after 24 hrs by immunofluorescence staining method; format: functional, cell-based
[8] = target: BDNF/NT-3 growth factors receptor (Homo sapiens) (UniProt Q16620); assay: Binding affinity to TRKB at 1 uM by high throughput binding assay relative to control
[9] = system: MCF7; assay: cells; conditions: Homo sapiens, MCF7, 48 h
Description: (§1) Cytotoxicity against human MCF7 cells after 48 hrs by MTT assay

[10] = target: Fibroblast growth factor receptor 2 (Homo sapiens) (UniProt P21802); assay: Binding affinity to FGFR2 at 1 uM by high throughput binding assay relative to control
Chain of Fibroblast growth factor receptor 2 (Homo sapiens) (P21802 22-821 limits assumed): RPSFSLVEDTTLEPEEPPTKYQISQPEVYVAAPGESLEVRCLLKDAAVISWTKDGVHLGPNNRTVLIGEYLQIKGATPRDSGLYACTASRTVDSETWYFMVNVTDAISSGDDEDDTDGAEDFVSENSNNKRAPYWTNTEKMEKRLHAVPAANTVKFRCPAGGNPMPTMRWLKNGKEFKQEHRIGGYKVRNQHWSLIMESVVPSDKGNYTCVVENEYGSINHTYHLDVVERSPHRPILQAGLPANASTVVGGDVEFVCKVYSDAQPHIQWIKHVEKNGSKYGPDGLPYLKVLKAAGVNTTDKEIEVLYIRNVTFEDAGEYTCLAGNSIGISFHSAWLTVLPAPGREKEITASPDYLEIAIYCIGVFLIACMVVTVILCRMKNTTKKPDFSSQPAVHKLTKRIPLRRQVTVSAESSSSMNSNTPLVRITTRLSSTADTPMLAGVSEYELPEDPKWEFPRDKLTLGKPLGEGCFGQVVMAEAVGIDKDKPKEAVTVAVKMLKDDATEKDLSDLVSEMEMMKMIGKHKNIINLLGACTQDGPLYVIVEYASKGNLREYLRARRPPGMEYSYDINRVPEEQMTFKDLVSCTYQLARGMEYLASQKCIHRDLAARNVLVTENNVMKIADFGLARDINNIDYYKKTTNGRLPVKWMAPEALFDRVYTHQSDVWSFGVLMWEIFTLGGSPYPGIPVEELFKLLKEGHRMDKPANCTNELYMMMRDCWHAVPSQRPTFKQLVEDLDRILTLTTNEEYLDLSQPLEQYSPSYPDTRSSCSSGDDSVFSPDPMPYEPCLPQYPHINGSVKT

[11] = target: T2, Mast/stem cell growth factor receptor Kit (Homo sapiens, UniProt P10721); assay: Binding affinity to KIT at 1 uM by high throughput binding assay relative to control
T2 sequence (P10721 whole entry): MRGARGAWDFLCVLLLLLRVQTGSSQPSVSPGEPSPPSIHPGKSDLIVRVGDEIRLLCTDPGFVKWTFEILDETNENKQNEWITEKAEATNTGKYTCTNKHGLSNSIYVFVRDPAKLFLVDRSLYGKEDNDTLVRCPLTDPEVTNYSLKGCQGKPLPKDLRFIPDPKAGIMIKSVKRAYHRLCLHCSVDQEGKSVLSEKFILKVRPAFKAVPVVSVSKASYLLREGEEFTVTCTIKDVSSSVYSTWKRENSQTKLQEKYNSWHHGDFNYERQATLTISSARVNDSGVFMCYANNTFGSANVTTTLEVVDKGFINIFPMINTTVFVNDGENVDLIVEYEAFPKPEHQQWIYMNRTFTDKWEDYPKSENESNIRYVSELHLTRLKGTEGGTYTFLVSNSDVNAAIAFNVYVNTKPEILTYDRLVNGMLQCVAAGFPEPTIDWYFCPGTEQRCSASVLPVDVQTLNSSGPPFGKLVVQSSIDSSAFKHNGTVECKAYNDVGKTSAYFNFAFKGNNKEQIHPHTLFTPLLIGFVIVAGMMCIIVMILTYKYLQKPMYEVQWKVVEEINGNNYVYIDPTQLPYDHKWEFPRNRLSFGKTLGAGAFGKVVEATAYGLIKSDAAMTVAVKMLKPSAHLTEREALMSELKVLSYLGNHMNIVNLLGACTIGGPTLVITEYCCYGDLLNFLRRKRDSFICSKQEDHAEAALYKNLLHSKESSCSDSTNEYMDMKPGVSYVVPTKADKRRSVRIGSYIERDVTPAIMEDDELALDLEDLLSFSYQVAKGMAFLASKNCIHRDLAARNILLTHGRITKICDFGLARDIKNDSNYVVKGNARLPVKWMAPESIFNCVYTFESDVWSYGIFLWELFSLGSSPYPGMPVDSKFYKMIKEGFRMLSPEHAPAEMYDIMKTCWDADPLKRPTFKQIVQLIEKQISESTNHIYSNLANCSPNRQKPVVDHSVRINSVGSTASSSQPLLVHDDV

[12] = target: Hypoxia-inducible factor 1-alpha (Homo sapiens) (UniProt Q16665); assay: Inhibition of HIF1alpha-mediated VEGF production in human MCF7 cells under hypoxic condition at 0.1 to 10 uM after 6 hrs; format: cell-based
[13] = system: MCF7; conditions: Homo sapiens
Description: as §1

[14] = system: MCF7; assay: Inhibition of hypoxia-induced HIF1alpha expression in human MCF7 cells after 6 hrs; format: functional, cell-based
[15] = target: Tyrosine-protein kinase JAK2 (Homo sapiens) (UniProt O60674); assay: Binding affinity to JAK2 at 1 uM by high throughput binding assay relative to control
[16] = target: Serine/threonine-protein kinase B-raf (Homo sapiens) (UniProt P15056); assay: Binding affinity to BRAF at 1 uM by high throughput binding assay relative to control
[17] = target: Focal adhesion kinase 1 (Homo sapiens) (UniProt Q05397); assay: Binding affinity to FAK at 1 uM by high throughput binding assay relative to control
[18] = target: Aurora kinase B (Homo sapiens) (UniProt Q96GD4); assay: Binding affinity to AURKB at 1 uM by high throughput binding assay relative to control
Chain of Aurora kinase B (Homo sapiens) (Q96GD4 whole entry): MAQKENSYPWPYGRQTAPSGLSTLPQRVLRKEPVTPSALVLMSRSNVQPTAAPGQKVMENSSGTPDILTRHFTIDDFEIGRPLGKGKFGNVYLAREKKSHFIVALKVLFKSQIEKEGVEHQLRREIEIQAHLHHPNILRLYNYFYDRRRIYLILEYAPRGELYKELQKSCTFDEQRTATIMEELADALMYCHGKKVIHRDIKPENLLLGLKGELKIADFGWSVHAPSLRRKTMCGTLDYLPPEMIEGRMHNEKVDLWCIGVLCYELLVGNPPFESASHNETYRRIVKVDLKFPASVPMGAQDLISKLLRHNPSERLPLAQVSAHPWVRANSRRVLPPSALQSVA

[19] = system: MCF7; assay: Cytotoxicity against human MCF7 cells assessed as growth inhibition at 0.1 to 50 uM after 48 hrs by MTT assay; format: functional
[20] = target: T2, Mast/stem cell growth factor receptor Kit; assay: Inhibition of KIT by radiometric kinase assay
[21] = target: Mitogen-activated protein kinase 3 (Homo sapiens) (UniProt P27361); assay: Binding affinity to ERK1 at 1 uM by high throughput binding assay relative to control
Chain of Mitogen-activated protein kinase 3 (Homo sapiens) (P27361 whole entry): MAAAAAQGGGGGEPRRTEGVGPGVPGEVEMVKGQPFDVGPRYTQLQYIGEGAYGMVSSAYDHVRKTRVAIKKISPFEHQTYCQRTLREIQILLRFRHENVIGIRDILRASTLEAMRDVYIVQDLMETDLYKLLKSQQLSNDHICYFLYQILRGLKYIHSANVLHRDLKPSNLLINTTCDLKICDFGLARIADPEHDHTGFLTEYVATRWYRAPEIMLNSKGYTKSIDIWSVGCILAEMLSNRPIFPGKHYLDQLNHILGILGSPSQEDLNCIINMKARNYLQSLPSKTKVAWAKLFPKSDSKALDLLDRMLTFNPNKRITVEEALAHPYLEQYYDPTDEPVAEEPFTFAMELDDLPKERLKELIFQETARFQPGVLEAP

[22] = target: Aurora kinase A (Homo sapiens) (UniProt O14965); assay: Binding affinity to AURKA at 1 uM by high throughput binding assay relative to control
Chain of Aurora kinase A (Homo sapiens) (O14965 whole entry): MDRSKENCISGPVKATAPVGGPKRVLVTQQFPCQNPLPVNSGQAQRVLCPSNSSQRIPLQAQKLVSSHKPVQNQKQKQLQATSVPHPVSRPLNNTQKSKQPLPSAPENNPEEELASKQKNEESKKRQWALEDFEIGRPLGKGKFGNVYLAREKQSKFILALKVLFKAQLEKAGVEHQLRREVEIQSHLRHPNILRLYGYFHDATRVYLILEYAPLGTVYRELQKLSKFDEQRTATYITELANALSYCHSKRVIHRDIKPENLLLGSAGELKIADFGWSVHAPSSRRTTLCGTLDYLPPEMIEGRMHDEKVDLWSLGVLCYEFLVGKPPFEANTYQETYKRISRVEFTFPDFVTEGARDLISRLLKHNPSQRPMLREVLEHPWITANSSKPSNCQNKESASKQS

[23] = system: SK-BR-3; assay: Cytotoxicity against human SKBR3 cells after 48 hrs by MTT assay; format: functional, cell-based
[24] = target: 3-phosphoinositide-dependent protein kinase 1 (Homo sapiens) (UniProt O15530); assay: Binding affinity to PDPK1 at 1 uM by high throughput binding assay relative to control
[25] = target: RAC-alpha serine/threonine-protein kinase (Homo sapiens) (UniProt P31749); assay: Binding affinity to AKT1 at 1 uM by high throughput binding assay relative to control
[26] = system: MCF7; assay: Induction of apoptosis in human MCF7 cells assessed as increase in cleaved caspase-3 expression at 10 uM after 24 hrs by immunofluorescence staining method; format: functional, cell-based
[27] = target: Glycogen synthase kinase-3 beta (Homo sapiens) (UniProt P49841); assay: Binding affinity to GSK3beta at 1 uM by high throughput binding assay relative to control
[28] = target: T1, High affinity nerve growth factor receptor; conditions: MCF7, 0.1 to 10 uM; remark: listed apart in the source
Target sequence in this assay (P04629 33-796 limits assumed): as the sequence (P04629 33-796 limits assumed) above
Description: Inhibition of TRKA-induced AKT phosphorylation in human MCF7 cells at 0.1 to 10 uM by Western blot analysis

[29] = target: Cyclin-dependent kinase 19 (Homo sapiens) (UniProt Q9BWU1); assay: Binding affinity to CDK11 at 1 uM by high throughput binding assay relative to control
Chain of Cyclin-dependent kinase 19 (Homo sapiens) (Q9BWU1 whole entry): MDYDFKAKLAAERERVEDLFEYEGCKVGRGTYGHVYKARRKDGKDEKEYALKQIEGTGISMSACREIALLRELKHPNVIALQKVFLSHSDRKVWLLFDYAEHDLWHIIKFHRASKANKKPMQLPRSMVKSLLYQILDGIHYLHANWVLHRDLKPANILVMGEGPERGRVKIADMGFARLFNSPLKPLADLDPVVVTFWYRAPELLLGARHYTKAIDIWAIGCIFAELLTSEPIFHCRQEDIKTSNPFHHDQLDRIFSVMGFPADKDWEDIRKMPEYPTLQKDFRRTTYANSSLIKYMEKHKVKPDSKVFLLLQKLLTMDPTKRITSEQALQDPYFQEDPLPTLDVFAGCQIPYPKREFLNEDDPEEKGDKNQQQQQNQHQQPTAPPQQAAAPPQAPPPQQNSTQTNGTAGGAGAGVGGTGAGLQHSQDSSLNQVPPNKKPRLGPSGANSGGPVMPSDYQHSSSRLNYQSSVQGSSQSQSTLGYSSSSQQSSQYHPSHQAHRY

[30] = target: Serine/threonine-protein kinase pim-1 (Homo sapiens) (UniProt P11309); assay: Binding affinity to PIM1 at 1 uM by high throughput binding assay relative to control
[31] = target: Hepatocyte growth factor receptor (Homo sapiens) (UniProt P08581); assay: Binding affinity to MET at 1 uM by high throughput binding assay relative to control
[32] = system: HUVEC; assay: Antiangiogenic activity in HUVEC assessed as inhibition of wound-induced cell migration after 16 hrs; format: functional, cell-based; conditions: Homo sapiens
[33] = target: Platelet-derived growth factor receptor alpha (Homo sapiens) (UniProt P16234); assay: Binding affinity to PDGFRalpha at 1 uM by high throughput binding assay relative to control
[34] = target: Epidermal growth factor receptor (Homo sapiens) (UniProt P00533); assay: Binding affinity to EGFR at 1 uM by high throughput binding assay relative to control
[35] = system: MCF7; assay: Induction of apoptosis in human MCF7 cells assessed as DNA strand breaks at 10 uM after 24 hrs by TUNEL assay; format: functional, cell-based
[36] = target: Dual specificity mitogen-activated protein kinase kinase 2 (Homo sapiens) (UniProt P36507); assay: Binding affinity to MEK2 at 1 uM by high throughput binding assay relative to control
[37] = system: HUVEC; assay: Antiangiogenic activity against HUVEC assessed as inhibition of VEGF-induced tube formation after 10 hrs by phase-contrast microscopic analysis; format: functional, cell-based; conditions: Homo sapiens
[38] = target: Rho-associated protein kinase 2 (Homo sapiens) (UniProt O75116); assay: Binding affinity to ROCK2 at 1 uM by high throughput binding assay relative to control
[39] = target: Serine/threonine-protein kinase PAK 1 (Homo sapiens) (UniProt Q13153); assay: Binding affinity to PAK1 at 1 uM by high throughput binding assay relative to control
[40] = target: T1, High affinity nerve growth factor receptor; assay: Inhibition of TRKA assessed as [gamma33P]ATP incorporation into substrate
Target sequence in this assay (P04629 whole entry): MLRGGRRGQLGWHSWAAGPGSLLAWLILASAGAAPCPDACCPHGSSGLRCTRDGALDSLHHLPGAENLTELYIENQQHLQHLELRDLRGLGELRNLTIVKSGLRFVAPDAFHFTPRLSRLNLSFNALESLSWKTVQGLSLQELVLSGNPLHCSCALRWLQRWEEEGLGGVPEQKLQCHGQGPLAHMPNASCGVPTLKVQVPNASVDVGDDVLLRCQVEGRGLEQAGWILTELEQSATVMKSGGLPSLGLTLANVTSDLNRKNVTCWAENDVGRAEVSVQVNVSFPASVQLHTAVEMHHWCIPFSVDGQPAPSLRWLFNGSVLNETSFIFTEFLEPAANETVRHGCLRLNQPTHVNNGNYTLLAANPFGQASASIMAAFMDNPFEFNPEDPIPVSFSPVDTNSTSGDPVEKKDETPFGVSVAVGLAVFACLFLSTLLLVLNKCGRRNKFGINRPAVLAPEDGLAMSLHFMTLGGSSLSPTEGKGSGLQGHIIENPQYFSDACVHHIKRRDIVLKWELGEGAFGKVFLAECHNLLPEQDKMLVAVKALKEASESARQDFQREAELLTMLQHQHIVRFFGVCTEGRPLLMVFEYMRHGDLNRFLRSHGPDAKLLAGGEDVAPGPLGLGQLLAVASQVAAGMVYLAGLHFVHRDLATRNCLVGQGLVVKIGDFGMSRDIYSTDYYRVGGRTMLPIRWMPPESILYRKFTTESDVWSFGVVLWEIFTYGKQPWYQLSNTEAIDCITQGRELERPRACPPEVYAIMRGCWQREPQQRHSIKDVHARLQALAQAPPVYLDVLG

[41] = target: Phosphatidylinositol 4,5-bisphosphate 3-kinase catalytic subunit alpha isoform (Homo sapiens, UniProt P42336); assay: Binding affinity to PI3KCA at 1 uM by high throughput binding assay relative to control
[42] = target: Serine/threonine-protein kinase PLK3 (Homo sapiens) (UniProt Q9H4B4); assay: Binding affinity to PLK3 at 1 uM by high throughput binding assay relative to control
[43] = system: MCF7; assay: Induction of apoptosis in human MCF7 cells assessed as increase in Bax expression at 10 uM after 24 hrs by immunofluorescence staining method; format: functional, cell-based
[44] = system: MCF7; assay: Induction of apoptosis in human MCF7 cells assessed as increase in cytochrome C expression at 10 uM after 24 hrs by immunofluorescence staining method; format: functional, cell-based
[45] = target: Mitogen-activated protein kinase 14 (Homo sapiens) (UniProt Q16539); assay: Binding affinity to P38alpha at 1 uM by high throughput binding assay relative to control
[46] = target: Dual specificity mitogen-activated protein kinase kinase 1 (Homo sapiens) (UniProt Q02750); assay: Binding affinity to MEK1 at 1 uM by high throughput binding assay relative to control
[47] = target: RAC-beta serine/threonine-protein kinase (Homo sapiens) (UniProt P31751); assay: Binding affinity to AKT2 at 1 uM by high throughput binding assay relative to control

Activity [2]: 88% | Activity [3]: 100% | Activity [4]: 81% | inhibition [6]: Active | Activity [8]: 1.2% | pIC50 [9]: 5.38 | Activity [10]: 61% | Activity [11]: 3% | inhibition [12]: Active | Activity [15]: 34% | Activity [16]: 100% | Activity [17]: 88% | Activity [18]: 85% | pIC50 [20]: 6.84 | Activity [21]: 100% | Activity [22]: 100% | Activity [24]: 90% | Activity [25]: 94% | Activity [27]: 81% | inhibition [28]: Active | Activity [29]: 26% | Activity [30]: 97% | Activity [31]: 96% | Activity [33]: 69% | Activity [34]: 100% | Activity [36]: 100% | Activity [38]: 50% | Activity [39]: 79% | pIC50 [40]: 8.78 | Activity [41]: 64% | Activity [42]: 75% | Activity [45]: 100% | Activity [46]: 100% | Activity [47]: 100%
Structure (SMILES): Nc1cc(NS(=O)(=O)c2cccc(C(F)(F)F)c2)cc(-c2cnc3[nH]cc(-c4ccncc4)c3c2)c1
Activity [1]: Active | Activity [5]: Active | Activity [7]: Active | Activity [13]: Dose-dependent effect | inhibition [14]: Dose-dependent effect | growth inhibition (GI) [19]: 40% | Activity [23]: Dose-dependent effect | Activity [26]: Active | inhibition [32]: Dose-dependent effect | Activity [35]: Active | inhibition [37]: Dose-dependent effect | Activity [43]: Active | Activity [44]: Active
